# In patent publication US10391150B2, “Treatments for migraine and related disorders” (The University of Chicago, priority 2011, dated 2019):
# Entries after “also recorded” stand apart in the source; their conditions may differ. Where two headings read alike, the source gives them in different places.
# B1: Interferon-gamma (protein, listed as Homo sapiens)
# chain: MKYTSYILAFQLCIVLGSLGCYCQDPYVKEAENLKKYFNAGHSDVADNGTLFLGILKNWKEESDRKIMQSQIVSFYFKLFKNFKDDQSIQKSVETIKEDMNVKFFNSNKKKRDDFEKLTNYSVTDLNVQRKAIHELIQVMAELSPAAKTGKRKRSQMLFRGRRASQ
# Experiments:
# Format in all cases: cell-based, rat
# [1] = test system: spreading depression (SD) in hippocampal slice cultures; assay: Spreading depression (SD) threshold / susceptibility in hippocampal slice cultures
# Source text: FIGS. 2A-2E. […] (FIG. 2A) Experiments begin with determination of the current needed to maximize standard CA3 area field potential responses. Half-maximal intensity is then used to elicit CA3 area evoked field potentials from dentate gyrus bipolar electrical stimulation. This documents the normalcy of evoked synaptic responses between preparations. If a slice's field excitatory post synaptic potentials are not at least 3 mV, slices are discarded. Next, field potential trains (i) are noted to verify that preparations are healthy enough to follow 10 Hz stimulation (e.g., amplitudes of vertical deviations in fast potential records are similar) and the current needed to trigger SD (ii) is registered (Pusic and Kraig, 2010).
# (FIG. 8a) Exemplary CA3 area evoked field potential. Experiments begin with establishment of the current intensity needed to evoke maximal field potential responses; stimuli of half-maximal intensity were then used to elicit subsequent field potentials. Only those cultures with CA3 pyramidal neuron post-synaptic responses of at least 3 mV were used for experiments. (FIG. 8b) CA3 response to dentate gyrus bipolar stimulation (10 pulses at 10 Hz, 500 μA) was used to elicit a spreading depression (SD), as shown in (FIG. 8c). (FIG. 8c) The spreading depression (SD) shown here was induced by the stimulation/response (arrow) shown in (FIG. 8b). […] Comparisons between groups made via Student's t-test.
# The inventors induced SD trans-synaptically in rat HSC using electrical stimuli (100 μs pulses @ 10 Hz for 1 s) ranging from 1 to 10,000 nC in order to determine SD threshold in sham and experimental groups (Pusic et al., 2011). Results were based on n≥3-6/group. […] This insulin dose approximates the pharmacological levels seen in humans treated with nasal insulin.
# Slice cultures were prepared and maintained as previously described (Mitchell et al., 2010a,). After 18 days in vitro (DIV), slice cultures were transferred to serum-free media that included additional calcium and magnesium. Cultures were screened at 21 DIV to ensure no pyramidal neuron death was present. Standard electrophysiological recordings were performed by placing a slice culture insert in a PDMI recording chamber with controlled temperature and pH (FIG. 1). The recording chamber was aerated with 5% CO2-balance air at 36° C. and media flowing at 1.2 mL/min or was held static around the slice culture insert. A recording electrode was placed at the CA3 pyramidal cell layer and a stimulating electrode was placed at the surface of the dentate gyrus. Recordings were initiated prior to placing the stimulating electrode on the culture to ensure no spreading depression was triggered as a result.
# Studies began with determination of the current needed to maximize standard CA3 area field potential responses. This documented the normalcy of evoked synaptic responses between preparations. If a slice's field EPSPs were not at least 3-4 mV, it was discarded.
# Next, trans-synaptically evoked SD was determined. Here, the inventors stimulated slices via the dentate gyrus with 100 μs pulses delivered at 10 Hz for 1 sec every 1-2 minutes at increasing μA current intensities until SD occurred.
# Slice cultures are prepared, maintained, and induced to fire SD as previously described using trans-synaptic excitation of CA3, where SD is initiated (FIG. 4) (Kunkler et al., 2005; Pusic et al., 2011).
# [2] = test system: CA3 area evoked excitability; design: key to evoked excitability response rating: a normal field potential (FP; left) was rated “1”; a FP that included stimulus-related bursting activity (center) was rated “2”; a stimulus that resulted in spreading depression (right) was rated is a “3”; conditions: for evoked excitability versus control: H2O2 exposure
# Procedure: (§1) FIGS. 11a-11g IGF-1 decreased CA3 oxidative stress (OS) and its related hyperexcitability. […] Relative evoked excitability was determined as a sum of responses seen (e.g., responses of “2” and a “3” yielded an overall excitability score of five). […] (FIGS. 11d-e) Exemplary images of control (FIG. 11d) slice culture OS compared to increased slice OS induced by exposure to menadione (FIG. 11e). Calibration bar, 200 Dotted boxes indicate CA3 areas of interest used for relative OS quantifications (f and g).
# [3] = test system: oxidative stress (OS) in hippocampal slice cultures; assay: Oxidative stress (OS) by CellROX fluorescence in hippocampal slice cultures (CA3)
# Procedure: FIGS. 4A-4F Oxidative stress (OS) from SD and its reduction by IGF-1. (FIG. 4A) Normal cytoarchitecture of a hippocampal slice culture showing pyramidal neuron areas of CA1, dentate gyrus (DG), and the imaging zone for the inventors' work here (dotted line), CA3. (FIG. 4B) OS was measured using CellROX, a fixable fluorescent marker from Invitrogen. […] (FIG. 4D) This reduction versus control SD was significant (p<0.02; n=4 & 5). (FIG. 4E) CellROX can be used to measure relative OS in specific brain cell types.
# FIGS. 9a-9f IGF-1 decreased oxidative stress from spreading depression. (FIG. 9a) NeuN immunohistochemical labeling of a hippocampal slice culture, for cytoarchitectural reference and to show the CA3 area of interest (dotted line box) used for quantification of oxidative stress (OS) via CellROX™ fluorescence intensity. (FIGS. 9b-c) Representative CellROX™-labeled hippocampal slices exposed to SD (FIG. 9b) and to 3-day IGF-1 incubation followed by spreading depression (SD) (FIG. 9c). Dotted line boxes illustrate CA3 areas of interest used for relative OS quantifications. […] Again, seven day treatments consisted of exposing cultures to IGF-1 for 12 hours a day for seven days. Note: IGF-1 exposure was continued for the additional 24 hour CellROX™ incubation. Scale bars=400 μm (a) and 200 μm (b and c). Comparisons between groups were made via ANOVA plus Holm-Sidak post hoc testing.
# as §1
# Oxidative stress from SD preferentially rises in astrocytes and microglia, with the latter effect mitigated by IGF-1 (FIG. 13). The inventors have recently shown that spreading depression (SD), the most likely cause of migraine aura and perhaps migraine (Lauritzen and Kraig, 2005), occurs with increased oxidative stress (OS) and that OS, in turn, increases SD susceptibility (Grinberg et al., 2012). Reactive oxygen and nitrogen species that cause OS have both autocrine and paracrine signaling capacities that can affect SD susceptibility by altering excitability (Kishida and Klann, 2007). Accordingly, the inventors looked for the cellular origin of OS from SD. Here the inventors used hippocampal slice cultures (HSC) to probe for cell-specific changes in OS from SD. SD was induced trans-synaptically in rat HSCs using bipolar electrical stimuli at the dentate gyrus (Pusic et al., 2011). Six SDs were induced every 7-9 min over an hr, followed by 24 hr incubation in CellROX™, a fixable fluorogenic probe for measuring OS (Grinberg et al., 2012). HSCs were then fixed in 10% buffered formalin phosphate. Other fixatives (PLP, 4% paraformaldehyde) prevented detection of OS change. Tissue was then labeled for neurons (anti-NeuN), oligodendrocytes (anti-RIP), astrocytes (anti-GFAP), or for microglia (isolectin GS-IB4).
molecule,measurement,setting,value
Insulin-like growth factor 1 [IGF-1],increase of SD threshold compared to control,[1]; 3-day exposure to IGF-1,75 fold
same,increase of SD threshold compared to control,[1]; 7-day phasic exposure to IGF-1 (12 hours a day),22 fold
same,increase of SD threshold compared to control,[1]; acute (15-30 min) exposure to IGF-1,24 fold
same,relative SD threshold levels,[1]; coincubation with ascorbate and IGF-1 versus IGF-1 alone,1.00±0.31
same,evoked excitability versus control,[2]; without or with IGF-1 pretreatment for 3 days,abrogated; also recorded: non-significant difference from control
same,evoked excitability versus control,"[2]; without or with acute IGF-1, 30 minutes after H2O2",abrogated
same,CA3 area evoked excitability,[2]; IGF-1 exposure alone,no significant impact
same,evoked excitability response rating,[2]; IGF-1 exposure alone,1
same,baseline slice culture OS versus control,[3]; 3-day IGF-1 alone,significantly reduce baseline OS; also recorded: reduced slice culture OS
same,decrease in OS from SD,[3]; 3-day exposure to IGF-1,30%
same,reduction of baseline OS levels compared with controls,[3]; 7-day exposure to IGF-1 alone,26%
same,decrease in OS from SD,"[3]; 7 days IGF-1, phasic",73%
same,increased OS induced by SD,[3]; IGF-1 (40 ng/mL) for 3 days prior to SD,reduction in OS; also recorded: abrogated
same,increased OS induced by SD,[3]; IGF-1 acutely,abrogated
same,increased OS induced by SD,"[3]; IGF-1 for 7 days prior to SD, 12 hours a day",significantly reduced
same,baseline slice culture OS versus control,[3]; acute IGF-1 exposure alone,did not reduced slice culture OS
same,decrease in OS from SD,[3]; acute treatment with IGF-1,20%
same,OS induced by menadione versus control,"[3]; menadione exposure, without or with acute IGF-1",abrogated; also recorded: reduced OS from menadione
same,OS induced by menadione versus control,[3]; pretreatment with IGF-1 for 3 days,abrogated; also recorded: reduced menadione-induced significant increase in OS
B1,susceptibility to SD,"[1]; IFN-γ 500 U/mL, at 1 day",significantly increased susceptibility to SD
same,OS,"[3]; transient (pulsed) IFN-γ 500 U/mL × 12 hours, assessed seven days later",OS is reduced; also recorded: similarly reduced
